Where two headings read alike, the source gives them in different places.
Molecular target: T1, recombinant human androgen receptor (hAR) (Homo sapiens, UniProt P10275)
T1 construct: made in house; host or cells: Sf9 insect cells (baculovirus)
Assay: Human Androgen Receptor Binding Analysis (competitive binding vs 3H-dihydrotestosterone)
Conditions: 1 nM 3H-DHT tracer, hydroxylapatite, one hour at 4° C

[1] = hAR Binding IC50, baculovirus/Sf9 generated hAR extract

T1 sequence (P10275 whole entry): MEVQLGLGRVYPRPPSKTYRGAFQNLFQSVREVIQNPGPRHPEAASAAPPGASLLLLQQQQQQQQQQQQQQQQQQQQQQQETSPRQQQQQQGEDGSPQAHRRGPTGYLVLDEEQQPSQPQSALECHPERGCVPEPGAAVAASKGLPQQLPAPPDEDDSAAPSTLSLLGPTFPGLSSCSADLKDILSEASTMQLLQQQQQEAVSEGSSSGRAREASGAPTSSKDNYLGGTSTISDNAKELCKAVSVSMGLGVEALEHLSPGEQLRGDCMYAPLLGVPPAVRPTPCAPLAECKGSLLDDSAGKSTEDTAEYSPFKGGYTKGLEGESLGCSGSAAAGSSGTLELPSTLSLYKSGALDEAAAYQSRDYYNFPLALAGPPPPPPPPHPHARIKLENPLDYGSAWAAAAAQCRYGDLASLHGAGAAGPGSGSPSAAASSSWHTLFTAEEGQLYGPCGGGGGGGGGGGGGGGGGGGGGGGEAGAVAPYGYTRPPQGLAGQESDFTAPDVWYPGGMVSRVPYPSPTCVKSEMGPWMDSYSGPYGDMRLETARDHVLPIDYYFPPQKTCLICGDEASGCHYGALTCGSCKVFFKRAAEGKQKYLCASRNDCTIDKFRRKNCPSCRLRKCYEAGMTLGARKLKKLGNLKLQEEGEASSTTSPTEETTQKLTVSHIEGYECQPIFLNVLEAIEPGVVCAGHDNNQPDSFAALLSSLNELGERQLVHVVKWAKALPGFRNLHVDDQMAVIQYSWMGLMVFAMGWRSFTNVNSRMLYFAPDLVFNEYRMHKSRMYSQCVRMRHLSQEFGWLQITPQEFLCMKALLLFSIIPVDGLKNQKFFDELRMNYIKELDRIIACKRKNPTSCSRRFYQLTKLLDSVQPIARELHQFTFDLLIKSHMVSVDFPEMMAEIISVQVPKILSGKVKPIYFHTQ
Experimental: The following is a brief description of the assay that determines the affinity of a compound for the recombinant human androgen receptor (hAR). Competitive binding analysis is performed on baculovirus/Sf9 generated hAR extracts in the presence or absence of differing concentrations of drug and a fixed concentration of ^3 H-dihydrotestosterone (^3 H-DHT) as tracer. […] Briefly, progressively decreasing concentrations of compounds are incubated in the presence of hAR extract (Chang et al. P.N.A.S. Vol. 89, pp. 5546-5950, 1992), hydroxylapatite and 1 nM ^3 H-DHT for one hour at 4° C. Subsequently, the binding reactions are washed three times to completely remove excess unbound ^3 H-DHT. hAR bound.
^3 H-DHT levels are determined in the presence of compounds (=competitive binding) and compared to levels bound when no competitor is present (=maximum binding). Compound binding affinity to the hAR is expressed as the concentration of compound at which one half of the maximum binding is inhibited.

SMILES | IC50 (baculovirus/Sf9 generated hAR extract, read-out: hAR Binding IC50) [nM] | IC50 [1] [nM]
CCC1CCNc2cc3oc(=O)cc(C(F)(F)F)c3cc21 (racemic) [Racemate (±), Racemic 5-ethyl-4-trifluoromethyl-5,6,7,8-tetrahydro-1-oxa-8-aza-anthracen-2-one, reference compound] | 35 | –
CCC1CCNc2cc3oc(=O)cc(C(F)(F)F)c3cc21 (single isomer, unassigned; (-)) [(-) Enantiomer, (-)-5-ethyl-4-trifluoromethyl-5,6,7,8-tetrahydro-1-oxa-8-aza-anthracen-2-one] | – | 5
CCC1CCNc2cc3oc(=O)cc(C(F)(F)F)c3cc21 (single isomer, unassigned; (+)) [(+) Enantiomer, (+)-5-Ethyl-4-trifluoromethyl-5,6,7,8-tetrahydro-1-oxa-8-aza-anthracen-2-one] | – | 112

— patent publication US6083956A, “Optically pure androgen mediator” (Pfizer Inc., priority 1999, dated 2000)
